ChEMBL document CHEMBL1201862, “PubChem BioAssay data set” (2004)
Activity calls are given as the source filed them.

Experiments:
[1] = biological target: T1, Sentrin-specific protease 7 (Homo sapiens, UniProt Q9BQF6); test: inhibition of human SENP7 cleavage activity – biochemical, luminescence, SAR follow-up (AID 504497); type: functional
T1 sequence (Q9BQF6 whole entry): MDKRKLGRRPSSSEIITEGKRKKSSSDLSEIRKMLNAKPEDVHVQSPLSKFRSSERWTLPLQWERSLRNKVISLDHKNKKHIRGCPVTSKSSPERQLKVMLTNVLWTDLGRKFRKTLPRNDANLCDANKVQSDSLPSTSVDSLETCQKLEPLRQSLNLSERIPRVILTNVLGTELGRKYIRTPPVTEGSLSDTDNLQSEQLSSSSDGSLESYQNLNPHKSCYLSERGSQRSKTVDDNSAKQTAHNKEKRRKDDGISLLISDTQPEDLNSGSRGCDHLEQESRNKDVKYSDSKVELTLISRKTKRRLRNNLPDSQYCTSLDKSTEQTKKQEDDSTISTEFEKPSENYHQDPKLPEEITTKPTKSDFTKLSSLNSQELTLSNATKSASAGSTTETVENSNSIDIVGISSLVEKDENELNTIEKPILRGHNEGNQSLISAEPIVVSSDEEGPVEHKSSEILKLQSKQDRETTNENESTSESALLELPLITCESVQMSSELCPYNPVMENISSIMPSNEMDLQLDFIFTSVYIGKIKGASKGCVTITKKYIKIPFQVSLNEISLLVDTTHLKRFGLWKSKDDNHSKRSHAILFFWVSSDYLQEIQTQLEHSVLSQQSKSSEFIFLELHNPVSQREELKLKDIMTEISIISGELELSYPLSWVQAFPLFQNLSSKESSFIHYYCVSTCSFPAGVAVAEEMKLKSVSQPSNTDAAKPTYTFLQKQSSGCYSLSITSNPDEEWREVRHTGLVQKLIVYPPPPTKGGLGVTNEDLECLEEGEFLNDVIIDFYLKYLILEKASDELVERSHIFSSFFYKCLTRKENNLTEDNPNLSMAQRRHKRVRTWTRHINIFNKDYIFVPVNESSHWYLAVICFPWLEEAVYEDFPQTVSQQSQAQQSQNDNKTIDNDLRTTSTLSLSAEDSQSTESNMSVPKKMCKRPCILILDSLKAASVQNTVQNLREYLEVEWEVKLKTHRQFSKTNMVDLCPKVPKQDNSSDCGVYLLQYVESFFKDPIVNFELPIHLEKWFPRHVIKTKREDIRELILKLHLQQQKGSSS

[2] = biological target: T2, Sentrin-specific protease 6 (Homo sapiens, UniProt Q9GZR1); test: SAR Analysis of small molecule inhibitors of Sentrin-specific protease 6 (SENP6) using a Luminescent assay. [Related pubchem assays (depositor defined):AID2582, AID2599]; type: functional
T2 sequence (Q9GZR1 whole entry): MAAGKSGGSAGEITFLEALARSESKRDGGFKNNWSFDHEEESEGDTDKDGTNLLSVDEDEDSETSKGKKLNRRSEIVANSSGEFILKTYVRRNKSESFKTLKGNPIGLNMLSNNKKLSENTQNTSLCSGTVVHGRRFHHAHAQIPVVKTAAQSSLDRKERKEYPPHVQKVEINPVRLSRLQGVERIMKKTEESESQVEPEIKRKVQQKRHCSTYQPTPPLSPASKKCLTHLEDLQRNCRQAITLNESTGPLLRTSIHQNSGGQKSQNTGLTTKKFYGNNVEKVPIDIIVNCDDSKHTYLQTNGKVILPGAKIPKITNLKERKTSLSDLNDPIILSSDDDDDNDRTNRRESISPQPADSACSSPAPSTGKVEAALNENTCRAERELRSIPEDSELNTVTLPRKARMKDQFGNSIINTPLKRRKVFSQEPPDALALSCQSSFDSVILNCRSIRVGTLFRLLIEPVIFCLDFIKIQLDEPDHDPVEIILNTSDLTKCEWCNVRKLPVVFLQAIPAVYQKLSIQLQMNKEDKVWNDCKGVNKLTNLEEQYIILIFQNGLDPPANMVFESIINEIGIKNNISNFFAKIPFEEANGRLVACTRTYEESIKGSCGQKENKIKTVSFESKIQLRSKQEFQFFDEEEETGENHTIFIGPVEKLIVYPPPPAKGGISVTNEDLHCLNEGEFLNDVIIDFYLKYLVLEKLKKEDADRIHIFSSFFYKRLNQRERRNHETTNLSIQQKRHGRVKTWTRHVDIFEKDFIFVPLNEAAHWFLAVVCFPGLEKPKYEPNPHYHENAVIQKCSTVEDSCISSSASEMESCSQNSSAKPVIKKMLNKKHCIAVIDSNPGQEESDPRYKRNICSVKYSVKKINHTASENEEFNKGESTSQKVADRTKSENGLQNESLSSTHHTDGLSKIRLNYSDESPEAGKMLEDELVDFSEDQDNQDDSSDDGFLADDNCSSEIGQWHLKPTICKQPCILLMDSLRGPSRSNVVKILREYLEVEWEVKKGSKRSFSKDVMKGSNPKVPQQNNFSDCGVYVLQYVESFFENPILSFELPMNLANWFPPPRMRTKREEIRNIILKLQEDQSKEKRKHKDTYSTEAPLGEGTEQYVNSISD

Caspase-3 = biological target: T3, Caspase-3 (Homo sapiens, UniProt P42574); test: SAR Analysis of small molecule inhibitors of Sentrin-specific proteases (SENPs) using a Caspase-3 Selectivity assay. [Related pubchem assays (depositor defined):AID2540, AID2599, AID434973, AID489001]; type: functional
T3 sequence (P42574 whole entry): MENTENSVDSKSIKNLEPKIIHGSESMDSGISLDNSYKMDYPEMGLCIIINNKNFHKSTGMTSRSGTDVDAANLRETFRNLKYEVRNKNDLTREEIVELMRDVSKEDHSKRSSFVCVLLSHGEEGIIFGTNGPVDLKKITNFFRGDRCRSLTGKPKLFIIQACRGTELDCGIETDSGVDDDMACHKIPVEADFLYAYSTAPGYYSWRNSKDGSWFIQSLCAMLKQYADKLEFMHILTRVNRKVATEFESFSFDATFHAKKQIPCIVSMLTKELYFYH

[3] = biological target: T4, Sentrin-specific protease 8 (Homo sapiens, UniProt Q96LD8); test: inhibition of human SENP8 cleavage activity – biochemical, luminescence, SAR follow-up (AID 504501); type: functional
T4 sequence (Q96LD8 whole entry): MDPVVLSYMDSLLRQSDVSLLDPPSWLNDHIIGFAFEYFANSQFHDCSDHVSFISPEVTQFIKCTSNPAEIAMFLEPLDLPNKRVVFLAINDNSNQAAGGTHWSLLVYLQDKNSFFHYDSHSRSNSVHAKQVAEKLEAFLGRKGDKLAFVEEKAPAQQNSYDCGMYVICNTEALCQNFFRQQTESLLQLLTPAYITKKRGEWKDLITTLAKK

[4] = biological target: T5, C-C chemokine receptor type 6 (Homo sapiens, UniProt P51684); test: antagonism of CCR6 beta-arrestin recruitment – cell-based, luminescent beta-arrestin readout, dose response (AID 504728); type: functional
T5 sequence (P51684 whole entry): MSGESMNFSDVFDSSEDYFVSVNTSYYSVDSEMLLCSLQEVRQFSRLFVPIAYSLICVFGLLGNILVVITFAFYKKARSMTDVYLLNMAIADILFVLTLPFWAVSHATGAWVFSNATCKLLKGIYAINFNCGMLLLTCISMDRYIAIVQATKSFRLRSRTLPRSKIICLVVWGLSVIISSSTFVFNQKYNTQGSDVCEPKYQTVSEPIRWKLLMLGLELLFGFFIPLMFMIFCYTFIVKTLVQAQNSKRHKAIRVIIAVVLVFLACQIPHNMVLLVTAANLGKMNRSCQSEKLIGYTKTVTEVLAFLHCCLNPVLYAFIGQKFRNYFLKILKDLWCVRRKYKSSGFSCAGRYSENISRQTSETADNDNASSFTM

Caspase-6 = Caspase-6 (Homo sapiens, UniProt P55212); test: inhibition of CASP6 peptide cleavage – biochemical, VEID-R110 fluorescence, cherry-pick, dose response (AID 720632)
Chain of Caspase-6 (P55212 24-179 limits assumed): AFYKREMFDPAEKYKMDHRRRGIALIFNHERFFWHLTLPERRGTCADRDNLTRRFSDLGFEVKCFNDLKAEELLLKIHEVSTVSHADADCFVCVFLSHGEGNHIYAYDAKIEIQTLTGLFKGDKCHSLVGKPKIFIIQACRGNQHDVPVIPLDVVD
Chain of Caspase-6 (P55212 194-293 limits assumed): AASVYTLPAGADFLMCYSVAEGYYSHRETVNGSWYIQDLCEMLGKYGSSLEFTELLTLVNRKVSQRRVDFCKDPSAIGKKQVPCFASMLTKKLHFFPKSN

[5] = biological target: T6, Replicative DNA helicase DnaB (Mycobacterium tuberculosis, UniProt P9WMR3); test: DnaB intein splicing inhibitors, dose response, biochemical, cell-free fluorescence (AID 449749); type: functional
T6 sequence (P9WMR3 whole entry): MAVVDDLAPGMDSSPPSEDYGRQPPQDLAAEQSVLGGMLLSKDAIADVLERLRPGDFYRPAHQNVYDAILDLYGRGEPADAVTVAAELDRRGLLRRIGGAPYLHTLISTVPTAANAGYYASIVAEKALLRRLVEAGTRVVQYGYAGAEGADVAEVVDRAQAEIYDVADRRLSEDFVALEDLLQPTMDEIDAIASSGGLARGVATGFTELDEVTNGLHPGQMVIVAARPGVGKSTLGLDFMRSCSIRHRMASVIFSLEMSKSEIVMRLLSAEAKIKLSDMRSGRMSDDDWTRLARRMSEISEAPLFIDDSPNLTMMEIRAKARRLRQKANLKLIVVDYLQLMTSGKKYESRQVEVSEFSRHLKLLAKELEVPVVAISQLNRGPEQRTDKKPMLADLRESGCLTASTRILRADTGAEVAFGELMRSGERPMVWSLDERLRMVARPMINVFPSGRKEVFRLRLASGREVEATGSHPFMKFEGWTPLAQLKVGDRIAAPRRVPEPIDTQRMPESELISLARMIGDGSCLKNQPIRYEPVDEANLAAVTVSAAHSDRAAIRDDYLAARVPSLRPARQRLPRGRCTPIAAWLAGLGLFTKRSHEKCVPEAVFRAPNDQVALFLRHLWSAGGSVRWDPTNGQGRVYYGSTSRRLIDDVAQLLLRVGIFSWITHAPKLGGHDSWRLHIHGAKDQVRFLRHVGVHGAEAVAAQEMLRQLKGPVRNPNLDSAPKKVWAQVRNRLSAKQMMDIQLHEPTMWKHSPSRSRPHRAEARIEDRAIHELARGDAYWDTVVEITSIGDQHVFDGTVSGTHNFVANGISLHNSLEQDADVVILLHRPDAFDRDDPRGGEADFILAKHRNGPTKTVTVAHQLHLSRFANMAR

[6] = biological target: Serine/threonine-protein phosphatase (Candida dubliniensis (strain CD36 / CBS 7987 / NCPF 3949 / NRRLY-17841) (Yeast), UniProt B9W6M3); test: blockers of CaCl2-induced CDRE-lacZ signaling – S. cerevisiae, luminescence, secondary, dose response (AID 2388); type: functional, cell-based;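 further: yeast reporter cells carrying a calcineurin-responsive lacZ construct stimulated with calcium chloride; luminescent beta-galactosidase reporter signal in whole cells rather than isolated phosphatase activity; potency for inhibition where a drop in reporter signal means calcineurin blockade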
[7] = Counterscreen for AddAB inhibitors: absorbance-based bacterial cell-based high throughput dose response assay for inhibitors of bacterial viability. [Related pubchem assays (depositor defined):AID435030, AID449728, AID449731, AID488942, AID488955, AID488956]; type: functional
[8] = biological target: ATP-dependent molecular chaperone HSP82 (Candida albicans (strain WO-1) (Yeast), UniProt C4YTQ8); test: steroid-induced GRE reporter decrease in yeast – S. cerevisiae, luminescence, Hsp90 inhibitor project, dose response (AID 2400); type: functional, cell-based;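 further: beta-galactosidase luminescence from glucocorticoid response element reporter as proxy for Hsp90 function; inhibitor potency where signal loss means Hsp90 inhibition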
Chain of ATP-dependent molecular chaperone HSP82 (C4YTQ8 whole entry): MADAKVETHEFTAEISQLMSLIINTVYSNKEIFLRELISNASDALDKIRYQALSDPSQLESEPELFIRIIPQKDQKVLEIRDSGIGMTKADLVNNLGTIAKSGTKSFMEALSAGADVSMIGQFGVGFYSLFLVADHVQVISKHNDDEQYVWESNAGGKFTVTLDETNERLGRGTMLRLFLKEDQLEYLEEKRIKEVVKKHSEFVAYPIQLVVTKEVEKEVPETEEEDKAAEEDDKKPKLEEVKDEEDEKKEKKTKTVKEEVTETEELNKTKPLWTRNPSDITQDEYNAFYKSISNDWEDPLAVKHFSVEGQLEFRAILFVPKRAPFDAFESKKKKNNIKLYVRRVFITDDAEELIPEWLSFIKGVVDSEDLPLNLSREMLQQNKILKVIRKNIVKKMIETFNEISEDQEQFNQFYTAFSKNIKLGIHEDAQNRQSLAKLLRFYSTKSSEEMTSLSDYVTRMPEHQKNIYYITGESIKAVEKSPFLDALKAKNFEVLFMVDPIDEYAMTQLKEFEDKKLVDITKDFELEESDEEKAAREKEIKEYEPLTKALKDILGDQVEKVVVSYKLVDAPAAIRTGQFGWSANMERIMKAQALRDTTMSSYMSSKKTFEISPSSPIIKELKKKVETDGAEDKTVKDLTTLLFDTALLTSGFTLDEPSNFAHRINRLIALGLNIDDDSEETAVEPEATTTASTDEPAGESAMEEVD

Beta-galactosidase = Beta-galactosidase (Escherichia coli, UniProt Q8VNN2); test: detection-enzyme interference by beta-gal modulators – biochemical, E. coli enzyme, set 3, artefact control for CCR6 antagonist project, dose response (AID 504712); type: functional
Chain of Beta-galactosidase (Q8VNN2 whole entry): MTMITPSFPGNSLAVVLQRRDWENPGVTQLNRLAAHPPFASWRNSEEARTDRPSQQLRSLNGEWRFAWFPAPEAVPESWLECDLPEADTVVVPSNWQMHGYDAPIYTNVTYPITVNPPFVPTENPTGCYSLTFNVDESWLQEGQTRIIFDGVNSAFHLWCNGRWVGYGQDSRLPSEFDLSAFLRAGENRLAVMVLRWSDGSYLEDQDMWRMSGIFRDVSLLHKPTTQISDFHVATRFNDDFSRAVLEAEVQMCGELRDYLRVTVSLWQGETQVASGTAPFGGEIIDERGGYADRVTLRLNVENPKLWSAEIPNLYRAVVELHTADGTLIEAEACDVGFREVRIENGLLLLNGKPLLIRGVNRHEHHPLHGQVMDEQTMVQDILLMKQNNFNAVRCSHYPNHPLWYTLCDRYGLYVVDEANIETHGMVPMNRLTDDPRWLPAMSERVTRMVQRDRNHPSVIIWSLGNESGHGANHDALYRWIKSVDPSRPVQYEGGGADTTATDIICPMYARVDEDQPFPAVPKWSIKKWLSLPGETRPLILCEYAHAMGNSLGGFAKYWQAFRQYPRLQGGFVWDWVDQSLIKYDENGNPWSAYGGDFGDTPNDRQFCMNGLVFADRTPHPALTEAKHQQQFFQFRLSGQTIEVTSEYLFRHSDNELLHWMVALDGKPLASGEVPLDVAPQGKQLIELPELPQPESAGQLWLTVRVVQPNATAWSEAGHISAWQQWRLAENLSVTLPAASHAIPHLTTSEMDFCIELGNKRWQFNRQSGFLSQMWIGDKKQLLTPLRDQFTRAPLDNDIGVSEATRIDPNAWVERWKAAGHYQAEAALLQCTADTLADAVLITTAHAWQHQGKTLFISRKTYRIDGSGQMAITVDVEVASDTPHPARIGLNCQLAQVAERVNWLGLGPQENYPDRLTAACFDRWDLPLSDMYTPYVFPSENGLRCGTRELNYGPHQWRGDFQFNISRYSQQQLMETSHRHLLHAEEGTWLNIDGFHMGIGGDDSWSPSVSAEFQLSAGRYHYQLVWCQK

Protein RecA = biological target: T7, Protein RecA (Mycobacterium tuberculosis, UniProt P9WHJ3); test: Fluorescence Cell-Free Homogeneous Dose Retest to Identify Inhibitors of RecA-Intein Splicing Activity. [Related pubchem assays (depositor defined):AID2097, AID2223, AID489010, AID492950]; type: functional
T7 sequence (P9WHJ3 whole entry): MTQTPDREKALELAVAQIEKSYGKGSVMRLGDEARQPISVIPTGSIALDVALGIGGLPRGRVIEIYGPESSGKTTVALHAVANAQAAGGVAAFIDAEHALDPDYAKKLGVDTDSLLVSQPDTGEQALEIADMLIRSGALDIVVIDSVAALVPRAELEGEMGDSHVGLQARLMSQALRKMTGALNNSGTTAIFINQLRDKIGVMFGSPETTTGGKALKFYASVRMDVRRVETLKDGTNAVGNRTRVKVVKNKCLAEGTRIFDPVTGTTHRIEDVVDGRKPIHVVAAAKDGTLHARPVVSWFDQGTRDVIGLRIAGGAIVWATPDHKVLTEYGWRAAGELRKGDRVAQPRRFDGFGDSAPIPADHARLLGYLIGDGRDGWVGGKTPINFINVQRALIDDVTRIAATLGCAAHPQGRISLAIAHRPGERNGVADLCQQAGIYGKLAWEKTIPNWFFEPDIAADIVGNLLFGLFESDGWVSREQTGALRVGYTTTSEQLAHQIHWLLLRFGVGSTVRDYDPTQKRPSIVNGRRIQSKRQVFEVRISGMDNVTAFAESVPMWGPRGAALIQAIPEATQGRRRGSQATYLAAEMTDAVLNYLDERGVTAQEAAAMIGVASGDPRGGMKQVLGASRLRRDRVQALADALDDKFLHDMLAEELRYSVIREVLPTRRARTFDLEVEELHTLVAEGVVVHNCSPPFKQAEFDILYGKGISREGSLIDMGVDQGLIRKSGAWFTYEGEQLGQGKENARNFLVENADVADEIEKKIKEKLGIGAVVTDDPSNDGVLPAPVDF

Exodeoxyribonuclease V = Exodeoxyribonuclease V (Escherichia coli (strain K12), UniProt P04993+P07648+P08394); test: RecBCD inhibition via phage-restricted bacterial growth – absorbance, V66 E. coli, mutant T4 phage, counter-screen for AddAB inhibitor project, dose response (AID 492957); type: functional, cell-based, Escherichia coli str. K-12 substr. MG1655
Chain of Exodeoxyribonuclease V (P04993 whole entry): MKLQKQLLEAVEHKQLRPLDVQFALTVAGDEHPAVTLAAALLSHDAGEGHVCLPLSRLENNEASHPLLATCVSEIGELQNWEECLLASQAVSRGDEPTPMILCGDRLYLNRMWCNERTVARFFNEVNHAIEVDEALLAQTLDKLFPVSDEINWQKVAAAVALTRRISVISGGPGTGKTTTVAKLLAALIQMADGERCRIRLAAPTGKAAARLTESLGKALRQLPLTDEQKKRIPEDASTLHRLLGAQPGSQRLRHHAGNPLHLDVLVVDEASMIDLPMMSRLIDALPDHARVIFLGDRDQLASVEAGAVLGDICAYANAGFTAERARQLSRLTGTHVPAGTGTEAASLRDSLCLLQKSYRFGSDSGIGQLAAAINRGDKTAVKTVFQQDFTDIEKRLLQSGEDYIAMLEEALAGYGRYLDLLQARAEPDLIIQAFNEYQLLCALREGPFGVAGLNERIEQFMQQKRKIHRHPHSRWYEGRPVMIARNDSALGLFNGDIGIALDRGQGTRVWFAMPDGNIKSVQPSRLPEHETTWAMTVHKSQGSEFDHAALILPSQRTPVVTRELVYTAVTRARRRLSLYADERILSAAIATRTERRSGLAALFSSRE
Chain of Exodeoxyribonuclease V (P07648 whole entry): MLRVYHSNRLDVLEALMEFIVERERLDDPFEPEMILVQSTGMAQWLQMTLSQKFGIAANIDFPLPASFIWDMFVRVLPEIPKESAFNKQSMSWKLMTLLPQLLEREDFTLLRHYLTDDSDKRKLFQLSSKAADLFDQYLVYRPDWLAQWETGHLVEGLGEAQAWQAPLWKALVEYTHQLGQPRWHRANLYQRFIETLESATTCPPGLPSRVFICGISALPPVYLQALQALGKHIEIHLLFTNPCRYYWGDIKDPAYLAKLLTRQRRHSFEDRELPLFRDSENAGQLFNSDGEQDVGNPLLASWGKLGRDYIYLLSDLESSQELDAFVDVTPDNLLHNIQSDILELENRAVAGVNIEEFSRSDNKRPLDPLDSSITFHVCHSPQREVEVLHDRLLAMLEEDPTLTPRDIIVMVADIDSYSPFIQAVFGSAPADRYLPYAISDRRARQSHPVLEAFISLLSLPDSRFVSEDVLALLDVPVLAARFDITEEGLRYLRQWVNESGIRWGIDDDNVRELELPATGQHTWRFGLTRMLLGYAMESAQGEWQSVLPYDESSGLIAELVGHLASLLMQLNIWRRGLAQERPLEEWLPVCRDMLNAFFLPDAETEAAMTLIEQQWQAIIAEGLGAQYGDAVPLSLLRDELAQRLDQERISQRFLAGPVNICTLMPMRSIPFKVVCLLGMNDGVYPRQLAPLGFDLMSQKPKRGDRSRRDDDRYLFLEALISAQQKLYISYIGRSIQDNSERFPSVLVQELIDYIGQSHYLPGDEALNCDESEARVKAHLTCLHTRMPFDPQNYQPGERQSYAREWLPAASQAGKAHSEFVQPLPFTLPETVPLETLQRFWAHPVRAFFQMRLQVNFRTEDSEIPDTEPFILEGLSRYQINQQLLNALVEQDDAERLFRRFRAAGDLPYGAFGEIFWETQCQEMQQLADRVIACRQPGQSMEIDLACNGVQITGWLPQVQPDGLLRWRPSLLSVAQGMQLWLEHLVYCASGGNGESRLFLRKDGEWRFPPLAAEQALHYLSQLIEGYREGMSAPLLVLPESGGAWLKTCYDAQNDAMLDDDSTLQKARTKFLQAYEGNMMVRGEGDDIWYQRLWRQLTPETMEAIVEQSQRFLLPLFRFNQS
Chain of Exodeoxyribonuclease V (P08394 whole entry): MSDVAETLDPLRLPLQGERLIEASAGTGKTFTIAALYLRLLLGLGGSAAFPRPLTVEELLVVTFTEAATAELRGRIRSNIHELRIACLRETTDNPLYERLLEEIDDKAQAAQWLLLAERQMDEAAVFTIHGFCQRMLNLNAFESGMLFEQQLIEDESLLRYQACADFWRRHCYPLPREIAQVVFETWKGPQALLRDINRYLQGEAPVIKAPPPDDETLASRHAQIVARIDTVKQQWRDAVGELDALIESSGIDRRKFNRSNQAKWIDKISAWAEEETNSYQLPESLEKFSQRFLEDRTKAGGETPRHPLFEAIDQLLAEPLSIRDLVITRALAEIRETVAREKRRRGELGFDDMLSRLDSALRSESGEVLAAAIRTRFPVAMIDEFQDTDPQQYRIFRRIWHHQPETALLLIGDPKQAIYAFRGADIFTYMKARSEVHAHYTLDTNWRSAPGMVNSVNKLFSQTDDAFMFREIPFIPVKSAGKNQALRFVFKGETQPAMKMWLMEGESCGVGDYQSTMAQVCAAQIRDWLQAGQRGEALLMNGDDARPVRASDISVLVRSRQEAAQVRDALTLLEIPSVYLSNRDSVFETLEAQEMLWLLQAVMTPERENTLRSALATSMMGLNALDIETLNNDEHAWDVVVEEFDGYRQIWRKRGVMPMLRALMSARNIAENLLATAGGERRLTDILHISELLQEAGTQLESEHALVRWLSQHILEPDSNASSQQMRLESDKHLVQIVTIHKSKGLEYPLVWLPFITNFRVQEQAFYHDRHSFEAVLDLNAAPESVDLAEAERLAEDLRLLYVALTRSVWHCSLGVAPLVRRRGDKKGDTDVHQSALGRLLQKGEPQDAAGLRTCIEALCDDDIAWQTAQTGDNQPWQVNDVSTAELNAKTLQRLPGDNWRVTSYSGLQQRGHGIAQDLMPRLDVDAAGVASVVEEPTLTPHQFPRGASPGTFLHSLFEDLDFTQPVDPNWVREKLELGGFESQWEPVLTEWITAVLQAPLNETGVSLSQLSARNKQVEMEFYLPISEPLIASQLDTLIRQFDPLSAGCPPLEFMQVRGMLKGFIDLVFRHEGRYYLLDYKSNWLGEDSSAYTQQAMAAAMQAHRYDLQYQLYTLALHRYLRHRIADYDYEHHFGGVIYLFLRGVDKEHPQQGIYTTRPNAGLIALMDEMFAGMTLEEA

[9] = fluconazole-exposed Candida albicans growth modulators – fluorescence, retest, confirmation (AID 2467); type: functional, cell-based
[10] = NIH-3T3 fibroblast cytotoxicity, dose response, cytotoxicity control, cell-based, fluorescence, Alamar Blue, secondary assay (AID 2327); type: functional;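 further: NIH-3T3 mouse fibroblasts cultured with fluconazole at 8 µg/mL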

Row | SMILES | IC50 [1] | IC50 [2] | IC50 (Caspase-3) | IC50 [3] | IC50 [4] | AC50 (Caspase-6) | AC50 [5] | EC50 [6] | IC50 [7] | EC50 [8] | IC50 (Beta-galactosidase) | EC50 (Protein RecA) | IC50 (Exodeoxyribonuclease V) | EC50 [9] | EC50 [10]
1 | COc1cc(OC)cc(-c2noc(/C=C/c3ccccc3Cl)n2)c1 | > 99 µM (inactive) | > 99 µM (inactive) | > 99 µM (inactive) | > 99 µM (inactive) |  |  |  |  |  |  |  |  |  |  | 
2 | O=C(Nc1nc2ccc(Cl)cc2s1)C1CCCCC1 | > 99 µM (inactive) | > 99 µM (inactive) | > 99 µM (inactive) | > 99 µM (inactive) |  |  |  |  |  |  |  |  |  |  | 
3 | O=[N+]([O-])c1cc(O)c2ncccc2c1 |  |  |  |  | > 66.6 µM (inactive) | 17.3 µM (active) | 6.95 µM (active) | > 180 µM (inactive) | 41.5 µM (inactive) | 18.5 µM (active) | > 66.6 µM (inactive) | 4.6 µM (active) | 62.3 µM (inactive) | 0.706 µM (active) | 42.1 µM (active)
